Entries after “also recorded” stand apart in the source; their conditions may differ.
Assays:
Format in all cases: cell-based
[1] = system: endogenous stress granule formation; assay: NaAsO2 induced endogenous stress granule formation in cells expressing G3BP1-NcVVDY50W, inhibitor pre-treatment; settings: NaAsO2 0.5 mM, 30 min; GSK2606414 added 1 hour before, cycloheximide 1 and a half hours before
Method: (§1) FIGS. 22A-22B. […] When endogenous stress granule formation is induced with NaAsO2 (0.5 mM, 30 min treatment), the G3BP1-NcVVDY50W forms stress granules that stain positive for key markers TIAR and eIF4G. When GSK2606414, a PERK kinase inhibitor, is added 1 hour before NaAsO2 treatment, endogenous stress granule formation is attenuated (FIG. 22A). When GSK2606414 is added 1 hour before blue light stimulation, there is no change in stress granule formation (FIG. 22B).
(§2) FIGS. 23A-23B. […] When endogenous stress granule formation is induced with NaAsO2 (0.5 mM, 30 min treatment), the G3BP1-NcVVDY50W forms stress granules that stain positive for the key marker eIF4G. When cycloheximide, a translational inhibitor, is added 1 and a half hours before NaAsO2 treatment, endogenous stress granule formation is attenuated (FIG. 23A).

[2] = system: optogenetically induced stress granule formation; assay: Blue light (optogenetically) induced stress granule formation, inhibitor pre-treatment; settings: blue light stimulation; GSK2606414 added 1 hour before, cycloheximide 1 and a half hours before
Method: as §1, §2
These light induced stress granules colocalize with key stress granule components, including Ataxin-2, TIAR, G3BP, eIF4G, eIF3H, RPS3, RPS6, TDP-43, FUS mRNA, and PABPC1 (FIGS. 2-9, 12, 13, 18, 20, 22, 23, 24, 25). Furthermore, the colocalization with mRNA (FIGS. 12 and 13) indicates the light induced stress granules are likely inhibiting mRNA translation. Note that the light induced stress granules appear identical to naturally occurring stress granules induced by heat shock treatment for 30 minutes at 42° C. […]

[3] = system: stress granules; assay: Cellular occurrence and structural characteristics of stress granules; settings: NaAsO2 0.5 mM, 30 min; cells expressing G3BP1-NcVVDY50W; Ataxin-2 positive
Method: FIGS. 11A-11D. […] Under normal conditions, G3BP1-NcVVDY50W remains diffuse in the cytoplasm. When endogenous stress granule formation is induced with NaAsO2 (0.5 mM, 30 min treatment), the G3BP1-NcVVDY50W forms stress granules that stain positive for the key marker Ataxin-2, and occur in the cell 11 times on average (FIG. 11A). They also have a defined shape that gives them a defined area (FIG. 11B), diameter (FIG. 11C) and circularity (FIG. 11D).

[4] = system: HEK293 cells; assay: Blue light induced stress granules: staining for stress granule markers and mRNA; settings: blue light stimulation
From the text: FIGS. 2A-2B. Blue light induced stress granules using a NcVVDY50W-G3BP1 protein arrangement. […] A DNA arrangement that generates the NcVVDY50W-G3BP1 was developed and expressed in HEK293 cells. Under normal conditions, the NcVVDY50W-G3BP1 remains diffuse in the cytoplasm. When endogenous stress granule formation is induced with heat shock, the NcVVDY50W-G3BP1 forms stress granules that stain positive for key markers including Ataxin-2 and TIAR.
FIG. 5. […] Under normal conditions, G3BP1-NcVVDY50W remains diffuse in the cytoplasm. When endogenous stress granule formation is induced with NaAsO2 (0.5 mM, 30 min treatment), the G3BP1-NcVVDY50W forms stress granules that stain positive for key markers TDP-43 and eIF4G. […] As an example of this technology, DNA arrangements were developed that generated G3BP1-NcVVDY50W, and expressed in HEK293 cells. Under normal conditions, the G3BP1-NcVVDY50W remains diffuse in the cytoplasm. When endogenous stress granule formation is induced with sodium arsenite, the G3BP1-NcVVDY50W forms stress granules that probe positive for key markers, including TDP-43 and eIF4G. […] Inserts are 3D images of stress granules indicated by arrows.
While stress granule dynamics are shown to be altered in these diseases, the true contributions of stress granules to disease pathobiology is unknown since the only current method to form these organelles is to introduce an extracellular stressor (e.g. heat stress at 43° C., exposure to sodium arsenite) which is toxic to cells and ultimately kills the cells being studied. The longest studies of stress granules to date are only on the order of a few hours and so, the importance of these organelles in the initiation of neurodegeneration or cancer cannot be assessed. Therefore, a method to control stress granule formation was developed using light, without the need for any extracellular stressors. To achieve this, the DNA encoding specific photoreceptor protein domains that self-bind with blue light exposure were linked to the DNA of a key protein required for the formation of stress granules, G3BP1 or TIA1. These arrangements were then expressed in HEK293 cells and were tested for their ability to form functional stress granules with various blue light treatment paradigms. It was shown that the LOV photoreceptor domain, from the Vivid protein of N. crassa, which is known to dimerize with blue light exposure, when fused to G3BP1 and exposed to 15-1080 min of 465 nm light at 0.1-1.0 mW/cm2 initiates the formation of a core stress granule structure consisting of the photoreceptors fused to G3BP1 that recruits additional G3BP1 and accessory proteins that comprise stress granules and allow for their maturation. This likely involved the liquid-liquid phase separation (LLPS) and dimerization and oligomerization of G3BP1 (concept represented in FIG. 1).

[5] = system: HEK293 cells; assay: Longitudinal live imaging of light induced stress granule dynamics; settings: for dynamics / liquid-like behaviour of light induced stress granules: blue light on/off or chronic
Method: FIG. 15. […] NcVVDY50W-G3BP1 was expressed in HEK293 cells. […] NcVVDY50W-G3BP1 expressing HEK293 cells were longitudinally imaged every 30 seconds and exposed to blue light in between each image for 30 minutes. The light was then removed and cells were imaged every 30 seconds without light in between each image to study the rate of formation and dissociation of the light induced stress granules.
FIGS. 17A-17B. […] FIG. 17A) NcVVDY50W-G3BP1 was expressed in HEK293 cells. Stress granule formation can be temporally controlled with light stimulation at different voltages. FIGS. 17B) NcVVDY50W-G3BP1 expressing HEK293 cells were longitudinally imaged every 30 seconds and exposed to different voltages (1.0V, or 5.0V, or 10.0V) of blue light in between each image for 30 minutes, over a time-course of 6 hours. The light was then removed and cells were imaged every 30 seconds without light in between each image to study the rate of formation of the light induced stress granules.
FIGS. 18A-18E. […] NcVVDY50W-G3BP1 was expressed in HEK293 cells. […] Light paradigms were developed to chronically form stress granules with light for up to 18 hours. The light induced stress granules are positive for both key markers such as PABPC1 and sequester mRNA throughout the time course, indicating they are functional. […] No previous study has been able to induce stress granule formation for more than 2-3 hours as the cells die from the treatment to induce stress granules. Thus, these are the first studies to create chronic stress granules for over 2-3 hours.
(§3) FIGS. 24A-24E. Replacing the G3BP1 NTF2 domain, which is required for G3BP1 self-oligomerization (optoSG), with oligomerizing photoreceptors, is sufficient to initiate the formation of optogenetic stress granules. FIG. 24A) Schematics of an additional approach to seed optoStress Granules (optoSGs) employing truncated G3BP1 protein and replacing the NTF2 oligomerizing domain with a photoreceptor with the capacity to oligomerize (in this instance Cry2-PHR, but also works with chronic stimulation of dimerizing photoreceptor). FIG. 24B) HEK cells expressing Cry2 PHR-[…]NTF-G3BP1 were exposed to blue light LED stimulation for 30 minutes to induce the formation of optoSGs.
FIGS. 25A-25C. OptoStress Granules (optoSGs) (Cry2-delta NTF-G3BP1) display liquid-like properties of membraneless organelles and colocalize with translation initiation factors and mRNA.

[6] = system: protein synthesis; assay: De novo protein synthesis, HPG incorporation with Click-iT detection; settings: blue light stimulation; Click-iT detection
Method: FIGS. 14A-14B. […] The major function of endogenous stress granules is to bind mRNAs and halt protein synthesis until the cellular stress is removed. To test this, cells expressing G3BP1-NcVVDY50W were either exposed to blue light stimulation or not for 30 minutes and protein translation was assessed. Prior to the translation assay, cells were treated with cyclohexamide for one hour to inhibit protein synthesis and then the cyclohexamide was removed and cells were provided L-Homopropargylglycine (HPG) for one hour. HPG acts as a methionine amino acid analog and is incorporated into newly synthesized proteins. Click-iT™ chemistry was then performed to detect HPG and cells were imaged. Green signal indicates newly synthesized proteins during the time at which HPG is present in the media.
as §3

Molecule | endogenous stress granule formation [1] | optogenetically induced stress granule formation [2] | colocalization of blue light induced stress granules with stress granule markers [4] | dynamics / liquid-like behaviour of light induced stress granules ([5]; HEK293 cells) | other results
Cn1cc(-c2ccc3c(c2)CCN3C(=O)Cc2cccc(C(F)(F)F)c2)c2c(N)ncnc21 [GSK2606414] | attenuated | no change |  |  | 
O=[As]O [NaAsO2, sodium arsenite] |  |  |  |  | occurrence of stress granules in the cell, on average [3]: 11
NcVVDY50W-G3BP1: NcVivid Y50W with G3BP1 Full Length Protein, SEQ ID NO: 9 |  |  | stained positive for Ataxin-2 and TIAR; also recorded: colocalize with the key stress granule marker eIF3H | repeatedly formed; also recorded: decrease in number and increase in size | mRNA sequestration by blue light induced stress granules [4]: sequester cytoplasmic mRNA; duration of chronically formed stress granules with light ([5]; HEK293 cells, chronic light, no cell stressors): up to 18 hours
C[C@@H]1C[C@@H]([C@H](O)CC2CC(=O)NC(=O)C2)C(=O)[C@@H](C)C1 [cycloheximide] | attenuated | inhibited; also recorded: fail to form |  |  | 
Cry2 PHR-[…]NTF-G3BP1: Cry2PHR with G3BP1 NTF2 Domain Deletion Mutation, SEQ ID NO: 94 (protein) MKMDKKTIVWFRRDLRIEDNPALAAAAHEGSVFPVFIWCPEEEGQFYPGRASRWWMKQSLAHLSQSLKALGSDLTLIKTHNTISAILDCIRVTGATKVVFNHLYDPVSLVRDHTVKEKLVERGISVQSYNGDLLYEPWEIYCEKGKPFTSFNSYWKKCLDMSIESVMLPPPWRLMPITAAAEAIWACSIEELGLENEAEKPSNALLTRAWSPGWSNADKLLNEFIEKQLIDYAKNSKKVVGNSTSLLSPYLHFGEISVRHVFQCARMKQIIWARDKNSEGEESADLFLRGIGLREYSRYICFNFPFTHEQSLLSHLRFFPWDADVDKFKAWRQGRTGYPLVDAGMRELWATGWMHNRIRVIVSSFAVKFLLLPWKWGMKYFWDTLLDADLECDILGWQYISGSIPDGHELDRLDNPALQGAKYDPEGEYIRQWLPELARLPTEWIHHPWDAPLTVLKASGVELGTNYAKPIVDIDTARELLAKAISRTREAQIMIGAAMGFVTEPQEESEEEVEEPEERQQTPEVVPDDSGTFYDQAVVSNDMEEHLEEPVAEPEPDPEPEPEQEPVSEIQEEKPEPVLEETAPEDAQKSSSPAPADIAQTVQEDLRTFSWASVTSKNLPPSGAVPVTGIPPHVVKVPASQPRPESKPESQIPPQRPQRDQRVREQRINIPPQRGPRPIREAGEQGDIEPRRMVRHPDSHQLFIGNLPHEVDKSELKDFFQSYGNVVELRINSGGKLPNFGFVVFDDSEPVQKVLSNRPIMFRGEVRLNVEEKKTRAAREGDRRDNRLRGPGGPRGGLGGGMRGPPRGGMVQKPGFGVGRGLAPRQKLIPMARRAWLEHGHSCFLCEIVIRSQFHTTYEPEA |  |  | colocalize with endogenous stress granule markers including PABPC1 and the 40S ribosomal component RPS3; also recorded: colocalize with mature stress granule markers Ataxin2 and eIF4G translational factors | exhibit the liquid-like droplet properties of endogenously formed stress granules | protein synthesis (HPG signal) with light-induced stress granules [6]: inhibit cellular protein synthesis to a similar degree as sodium arsenite induced stress granules; time to optoSG formation ([5]; HEKs, blue light LED stimulation): 15 min

Source: patent US20250313849A1, “OPTOGENETIC INDUCTION OF MEMBRANELESS ORGANELLES” (UNIVERSITY OF PITTSBURGH-OF THE COMMONWEALTH SYSTEM OF …, priority 2017, published 2025)
